Data: patent US7041440B2, “IP3-binding polypeptides and methods of using them” (Riken, priority 1998, dated 2006)
Where “and” joins values, the source holds several entries; their conditions need not be identical. Identical values can stand only once. Like-named read-outs stand apart in the source and are kept apart here.

Columns and labels:
[1] = cited from earlier work
[2] = [3H]IP3-binding activity, Scatchard plot analysis
Method: The IP3-binding activities of these fusion proteins were measured mainly by the method of Yoshikawa et al (1996).
Each fusion protein (IP3 sponge) (0.2 μg) was mixed with 100 μl of binding buffer-α (50 mM Tris-HCl (pH 8.0 at 4° C.), 1 mM EDTA, 1 mM β-mercaptoethanol) that contained 9.6 nM D-myo-[^3H](1,4,5)IP3 (777 GBq/mmol; DuPont NEN) (hereinafter, abbreviated as “[^3H]IP3”) and various concentrations of non-labeled D-myo-(1,4,5)IP3 (Dojindo) (hereinafter, abbreviated as “cold IP3”). The mixture was left to stand on ice for 10 minutes. To the mixture, 4 μl of 50 mg/ml γ-globulin (Sigma) (final concentration: 1 mg/ml) and 100 μl of 30% PEG 6000 (Sigma)/binding buffer-a solution (final concentration: 15%) were added. The resultant mixture was left to stand on ice for 5 minutes, and then centrifuged at 10,000×g at 2° C. for 5 minutes to collect polypeptide/PEG complex. PEG-precipitated [^3H]IP3-binding polypeptide was well solubilized with 180 μl solubilizer Solvable (DuPont NEN). The resultant was neutralized with 18 μl glacial acetic acid and then added to 5 ml liquid scintillation counter (Atomlight [DuPont NEN]) to measure the radioactivity (first radioactivity). Non-specific binding of each protein was determined by measuring the second radioactivity in the presence of 2 μM or 10 μM cold IP3. Then, a specific binding value of each protein was obtained by subtracting the second radioactivity (non-specific binding value) from the first radioactivity values.
Scatchard plot analysis was conducted under the following conditions. For low-affinity polypetides (G224-m30 and control GST), the binding experiment was conducted in 100 μl binding buffer a by adding 9.6 nM [^3H]IP3 (DuPont NEN) and 10–20 nM of cold IP3 to 2 μg of IP3-binding polypeptide, and by adding 9.6 nM [^3H]IP3 (DuPont NEN) and 50 nM-2 μM of cold IP3 to 0.01 μg IP3-binding polypeptide. For high-affinity IP3 sponges (G224 and G224-m49), binding experiment was conducted with 0.02 μg IP3 sponges at [^3H]-IP3 concentrations of 0.15, 0.3, 0.6, 1.2, 2.4, 4.8 and 9.6 nM without adding cold IP3.

[3] = [3H]IP3-binding activity, Scatchard plot analysis; remark: listed apart in the source
[4] = molecular target: T1, IP3 receptor on cerebellar microsome (Mus musculus, UniProt P11881); assay: Inhibition of IP3-induced Ca2+ release (IICR) from cerebellar microsome, fura-2; type: biochemical
T1 construct: Mouse cerebellum is a tissue that is rich in IP3 receptor; from tissue; host or cells: mouse (ddY) cerebellum, microsomal fraction
Method: To conduct a test of inhibiting IP3-induced Ca^2+ release, a microsomal fraction was prepared from mouse cerebellum as described in Example 3. The fraction was suspended in Buffer B, dispensed, and stored at −80° C. until it was used.
Composition of Buffer B was 110 mM KCl, 10 mM NaCl, 5 mM KH2PO4, 1 mM DDT, and 50 mM HEPES-KOH (pH 7.2) (containing a cocktail of protease inhibitors [0.1 mM PMSF, 10 μM leupeptin, 10 μM pepstatin A, 10 μM E-64] and 2 mM MgCl2).
An IP3-induced Ca^2+ release activity of cerebellar microsome was determined by using fura-2 (Molecular Probe) as a fluorescent Ca^2+ indicator. Specifically, excitations upon addition of IP3 at two wavelengths (340 nm and 380 nm) were measured with fluorescence spectrophotometer CAF110 (Nihon Bunko) to see the change in the fluorescent intensity ratio (F340/F380) at 500 nm.
IP3-induced Ca^2+ release from the cerebellar microsome is generally EC50=100–200 nM IP3. Cerebellar microsome (100 μg) was mixed with 500 μl of a release buffer (Buffer B containing 1 mM MgCl2, 2 μM fura-2, 1 mM DTT, 10 mM creatine phosphate, 40 U/ml creatine kinase, 1 μg/ml oligomycin, and the cocktail of protease inhibitors) in a measurement cuvette with a stirrer bar. The following reaction was conducted at 30° C. while constantly stirring with the stirrer bar.
One mM of ATP was added to the mixture in the cuvette to activate Ca^2+ pumping (Ca^2+-ATPase), whereby Ca^2+ was incorporated into the inner space of microsome (Ca^2+ loading). Ca^2+ loading was confirmed by monitoring until the decrease of fura-2 fluorescent level became constant. The change in the fura-2 fluorescent intensity ratio was measured (F340/F380) at a subthreshold level.
The effect of IP3 sponge on inhibiting IP3-induced Ca^2+ release activity of cerebellar microsome was analyzed as follows. After the addition of ATP, the curve of fura-2 fluorescent intensity was monitored until the decrease became constant. Then, various concentrations of IP3 sponges were added. After 1 min., 50 nM to 1 μM of IP3 was added to the reaction mixture to observe the change of fura-2 fluorescent intensity induced by the IP3.
The IP3 sponge concentration dependency was determined as follows. High affinity polypeptide G224 of 3.125, 6.25, 12.5, 25, 50, 100, 200 μg/ml were added to the reaction mixture, respectively. After about 1 min., 100 nM of IP3 was added to measure the Ca^2+ release activity induced by the IP3. The concentration dependency of low affinity polypeptide G224-m30 was determined by adding G224-m30 of 200, 400 and 500 μg/ml. After about 1 min., 100 nM of IP3 was added to measure the Ca^2+ release activity induced by the IP3. In addition, G224-m30 of 500 μg/ml was also added, and after about 1 min., 50 nM of IP3 was added to measure the Ca^2+ release activity induced by the IP3.

[5] = molecular target: T2, IP3 receptor of cerebellar microsome (Mus musculus, UniProt P11881); assay: Inhibition of [3H]IP3 binding of cerebellar microsome by IP3 sponges; details: 40 μg cerebellar microsome, 9.6 nM [3H]IP3, 100 μl (FIG. 4)
T2 construct: Mouse cerebellum is a tissue that is rich in IP3 receptor; from tissue; host or cells: mouse (ddY) cerebellum, microsomal fraction
Method: The inhibition effects of the IP3-binding polypeptides (IP3 sponges) on [H]IP3-binding activity of cerebellar microsome was analyzed as follows.
A microsomal fraction was prepared from the cerebella of mice ddY (Nippon SLC) mainly by following the method of Nakada et al. (Nakada S. et al., Biochem. J. 277:125–131, 1991). In 100 μl of binding buffer α, various concentrations of the IP3 sponges were added respectively to see the changes in the binding between the cerebellar microsome (40 μg) and 9.6 nM [^3H]-IP3 according to the above method (see Scatchard plot analysis).
Mouse cerebellum is a tissue that is rich in IP3 receptor and whose microsomal fraction has a [^3H]IP3-binding activity which is at least 50 times higher than those in other tissues (Maeda et al., 1990 (supra)). […] It was calculated that, there were about 0.92 pmol of IP3-binding site of cerebellum IP3 receptor and 0.96 pmol of [^3H]IP3 present in the 100 μl solution.

[6] = purified IP3 receptor, Maeda et al. 1990
[7] = purified protein, [3H]IP3 binding

T1 sequence (P11881 whole entry N1264K/P2675L): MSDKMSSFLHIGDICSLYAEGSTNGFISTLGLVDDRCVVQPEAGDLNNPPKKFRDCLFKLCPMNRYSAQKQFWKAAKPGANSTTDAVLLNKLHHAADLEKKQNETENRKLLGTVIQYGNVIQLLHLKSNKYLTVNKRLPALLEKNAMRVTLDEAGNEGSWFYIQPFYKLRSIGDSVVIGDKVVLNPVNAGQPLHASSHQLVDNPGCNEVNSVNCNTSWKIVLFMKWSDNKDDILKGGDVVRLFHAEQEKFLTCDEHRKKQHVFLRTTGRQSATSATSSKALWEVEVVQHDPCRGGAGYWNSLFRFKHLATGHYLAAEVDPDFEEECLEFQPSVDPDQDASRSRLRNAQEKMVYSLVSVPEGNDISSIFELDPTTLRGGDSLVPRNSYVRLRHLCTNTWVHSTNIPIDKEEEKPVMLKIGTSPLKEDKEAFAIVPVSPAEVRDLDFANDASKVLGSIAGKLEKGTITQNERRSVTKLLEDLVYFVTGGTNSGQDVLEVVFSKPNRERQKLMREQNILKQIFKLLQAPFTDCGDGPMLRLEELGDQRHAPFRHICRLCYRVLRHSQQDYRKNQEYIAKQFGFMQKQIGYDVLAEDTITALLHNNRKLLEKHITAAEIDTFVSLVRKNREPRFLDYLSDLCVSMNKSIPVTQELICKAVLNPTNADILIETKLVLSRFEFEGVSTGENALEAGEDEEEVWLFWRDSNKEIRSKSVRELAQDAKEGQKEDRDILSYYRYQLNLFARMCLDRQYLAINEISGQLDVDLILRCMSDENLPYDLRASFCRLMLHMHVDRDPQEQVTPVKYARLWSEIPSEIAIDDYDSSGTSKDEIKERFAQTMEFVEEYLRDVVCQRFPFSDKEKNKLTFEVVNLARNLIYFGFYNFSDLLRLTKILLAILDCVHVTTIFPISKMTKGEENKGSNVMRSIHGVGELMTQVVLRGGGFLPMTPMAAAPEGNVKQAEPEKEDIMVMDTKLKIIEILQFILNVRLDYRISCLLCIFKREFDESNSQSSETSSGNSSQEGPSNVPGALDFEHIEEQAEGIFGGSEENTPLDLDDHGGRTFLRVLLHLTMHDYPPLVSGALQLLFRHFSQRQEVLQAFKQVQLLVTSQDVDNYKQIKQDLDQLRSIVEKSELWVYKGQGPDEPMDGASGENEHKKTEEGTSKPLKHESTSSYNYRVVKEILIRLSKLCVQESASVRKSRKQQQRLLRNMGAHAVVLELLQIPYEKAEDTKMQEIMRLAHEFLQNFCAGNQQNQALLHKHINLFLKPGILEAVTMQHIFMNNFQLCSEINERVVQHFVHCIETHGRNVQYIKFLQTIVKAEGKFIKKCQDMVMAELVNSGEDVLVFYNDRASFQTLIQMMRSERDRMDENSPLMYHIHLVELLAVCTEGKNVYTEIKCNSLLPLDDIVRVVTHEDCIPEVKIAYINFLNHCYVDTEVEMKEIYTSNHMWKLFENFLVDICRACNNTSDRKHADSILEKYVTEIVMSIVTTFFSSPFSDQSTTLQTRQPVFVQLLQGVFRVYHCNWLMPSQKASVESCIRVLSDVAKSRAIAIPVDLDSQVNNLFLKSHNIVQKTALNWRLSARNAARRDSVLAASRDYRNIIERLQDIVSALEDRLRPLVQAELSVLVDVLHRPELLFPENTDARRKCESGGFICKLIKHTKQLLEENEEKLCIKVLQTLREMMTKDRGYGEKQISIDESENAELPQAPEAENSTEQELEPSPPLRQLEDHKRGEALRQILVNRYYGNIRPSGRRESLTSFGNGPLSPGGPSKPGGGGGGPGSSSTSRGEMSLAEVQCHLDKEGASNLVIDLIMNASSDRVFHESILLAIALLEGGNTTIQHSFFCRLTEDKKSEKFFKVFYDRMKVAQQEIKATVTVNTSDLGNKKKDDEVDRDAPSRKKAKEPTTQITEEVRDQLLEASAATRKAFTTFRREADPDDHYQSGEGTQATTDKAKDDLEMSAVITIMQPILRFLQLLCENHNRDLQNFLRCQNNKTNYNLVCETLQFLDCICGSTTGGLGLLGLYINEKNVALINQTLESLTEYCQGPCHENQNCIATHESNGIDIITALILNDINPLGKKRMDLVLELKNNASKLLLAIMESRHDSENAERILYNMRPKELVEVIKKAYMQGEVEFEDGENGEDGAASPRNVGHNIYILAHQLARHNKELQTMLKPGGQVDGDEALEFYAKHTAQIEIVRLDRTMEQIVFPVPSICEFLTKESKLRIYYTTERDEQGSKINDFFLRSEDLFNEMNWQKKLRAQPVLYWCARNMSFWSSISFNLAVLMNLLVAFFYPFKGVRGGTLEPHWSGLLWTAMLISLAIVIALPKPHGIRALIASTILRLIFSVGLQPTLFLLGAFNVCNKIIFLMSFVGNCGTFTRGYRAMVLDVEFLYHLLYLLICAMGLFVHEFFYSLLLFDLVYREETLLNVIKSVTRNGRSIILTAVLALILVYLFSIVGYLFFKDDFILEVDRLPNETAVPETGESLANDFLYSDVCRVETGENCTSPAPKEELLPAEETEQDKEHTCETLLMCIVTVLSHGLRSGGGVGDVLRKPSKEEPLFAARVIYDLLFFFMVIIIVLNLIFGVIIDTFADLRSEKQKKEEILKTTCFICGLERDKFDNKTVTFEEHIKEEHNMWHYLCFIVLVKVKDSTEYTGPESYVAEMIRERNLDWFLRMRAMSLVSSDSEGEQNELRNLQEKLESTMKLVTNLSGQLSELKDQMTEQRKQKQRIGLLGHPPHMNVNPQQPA

Purified IP3R: purified natural IP3 receptor, Maeda et al. 1990
Bmax [1, 6]: 2.1 pmol/μg purified protein | Kd [1, 6]: 83 nM

N4-T604: protein obtained by deleting amino acids 1–223 of T604; amino acids 224–604
activity, times that of the original T604 ([2]; relative to T604): about 3 times

T604: polypeptide of amino acids 1–604 (M-1 to K-604) of mouse Type-1 IP3 receptor
Kd ([3]; 3 μg T604 soluble fraction, 9.6 nM [3H]IP3, cold IP3 competition (FIG. 2C)): 45 ± 7.6 nM | Bmax ([3]; E. coli soluble fraction): 690 pmol/mg protein and 690±64 pmol/mg protein | Kd ([3]; crude cell lysate / E. coli soluble fraction, 9.6 nM [3H]IP3 competed with cold IP3): 45 nM | Kd [2, 7]: 7.6 nM

G224: fusion polypeptide of GST and amino acids 224–604 (M-224 to K-604) of IP3 receptor
concentration required for 50% inhibition of IP3-induced Ca2+ release ([4]; 100 nM IP3 (FIG. 7)): about 20 μg/ml | inhibition of IP3-induced Ca2+ release ([4]; 100 μg/ml, 100 nM IP3 (FIG. 6F)): almost completely inhibited | IC50 of IP3-binding inhibition [5]: about 10 μg/ml | binding to (1,4,5)IP3 and (2,4,5)IP3 [2]: binds well | Kd ([2]; purified GST fusion protein (FIG. 3A, 3B)): 0.083 nM | Bmax ([2]; purified protein): 1.6 pmol/μg purified protein | affinity, times higher than that of polypeptide T734 ([2]; relative to T734): 500 times

Amino acid region 224–579: 356-residue polypeptide almost corresponding to the IP3-binding core region
Kd ([1]; Yoshikawa et al. 1996): 2.3 nM

G224m30: G224 introduced with K508A mutation; low affinity IP3-binding polypeptide
effect on inhibiting Ca2+ release versus control ([4]; 500 μg/ml, 50 nM IP3): Little difference | inhibiting effect on Ca2+ release ([4]; 500 μg/ml, 100 nM IP3): no inhibiting effect | IC50 of IP3-binding inhibition [5]: 100 µg/mL | Bmax ([2]; purified protein): 3.0 pmol/μg purified protein | Kd [2, 7]: 330 nM | Kd ([2]; purified protein, [3H]IP3 binding, listed as G224-m30): ~330 nM

T734: N-terminal 734 amino acids of mouse Type-1 IP3 receptor (mIP3R1)
Bmax ([1]; E. coli soluble fraction, Yoshikawa et al. 1996): 46 pmol/mg protein | Kd ([1]; crude cell lysates, Yoshikawa et al. 1996): 50 ± 2.4 nM
